Patent publication US7423015B1, “Antihelminthic drugs as a treatment for hyperproliferative diseases” (Board of Regents, The University of Texas System, priority 2001, dated 2008)

Key:
[1] = tested on: human lung cancer cell lines (H460 and A549); experiment: In vitro proliferation assay with MZ, cell count; type: cell-based; details: 24 h treatment, read-out: half maximal inhibitory concentration (IC50)
Protocol: (§1) Cells of the human non-small cell lung cancer (NSCLC) cell line A549, WI-38 normal fibroblast (American Type Culture Collection, Rockville, Md.) and H460 (a gift from Drs. Adi Gazdar and John Minna. University of Texas Southwestern Medical Center, Dallas) were seeded on culture plates (2×10^4 cells/well) in F12 and RPMI medium, respectively, supplemented with 10% heat-inactivated fetal calf serum and antibiotics. HUVEC were grown in medium supplemented with growth factor (Clonetics, San Diego). The cells were then exposed to MZ dissolved in dimethyl sulfoxide (DMSO) when grown to 40-50% confluence. Cell growth was monitored by counting the cells using a hemocytometer.
(§2) Initially, the inventors examined the effect of MZ on proliferation of human lung cancer cell lines (H460 and A549) in vitro.

[2] = tested on: human vascular endothelial cells (HUVEC); experiment: In vitro proliferation assay with MZ, cell count; type: cell-based; details: 24 h treatment
Protocol: as §1, §2

normal fibroblast = experiment: In vitro proliferation assay with MZ, cell count; type: cell-based, human; details: 24 h treatment
Protocol: as §1, §2

[3] = tested on: breast, ovarian and colon carcinoma and osteosarcoma; experiment: In vitro proliferation assay with MZ; type: cell-based; details: Homo sapiens
[4] = tested on: H460 human non-small cell lung cancer xenograft; type: in vivo, athymic nu/nu mice
Protocol: Mice that had received 3.5 Gy of total body irradiation 1 day before inoculation were given injections into the shoulder of 2×10^6 tumor cells. Mice were then given MZ oral suspension (100 mg Vermox chewable tablet, Janssen Pharmaceutica, NJ, suspended in 10 ml PBS by sonication for 30 sec) with indicated concentration every other day, starting the day after 3-5 mm tumor established. Five mice were used in each group. Control and treated mice were then monitored for tumor growth; the tumors were measured externally in cross-sectional diameter every 7 days. Tumor volumes were calculated as previously described. Experiments were repeated three times.
The in vitro effect of MZ on proliferation of tumor cell lines prompted us to investigate its antitumor activity in an athymic nu/nu mouse model. Tumors were established by subcutaneous injection of H460 cells, a human non-small cell lung cancer (NSCLC) cell line ([…] cells/mouse) (FIG. 5B). […] Moreover, 10/10 animals inoculated with 1×10^6 cells developed tumors within 12 days. […] T0.2, T0.4 and T0.8 correspond to 0.2, 0.4 and 0.8 mg of MZ treatment groups (FIG. 5C). Animals with established tumors, 3-5 mm in diameter, received MZ every other day for 4 weeks, after which tumors were harvested, photographed, and weighed.

[5] = tested on: tumor vascularity of H460 xenografts (CD31); experiment: Immunohistochemical analysis of CD31 in H460 tumors; type: in vivo, nu/nu mice; details: H460 xenografts in nude mice
Protocol: Subcutaneous H460 tumors established in nu/nu mice that were either not treated or treated with MZ were harvested and fixed in 4% buffered formalin, paraffin embedded, and cut as […] thick sections. Tissue sections were stained for CD31 expression using rat anti-mouse CD31 antibody (Pharmingen) as previously described with slight modifications. Briefly, following deparafinzation and rehydration, tissue sections were treated with 0.3% H2O2 in methanol for 30 min to block endogenous peroxidase activity and were subsequently incubated with normal rat serum for 30 min at room temperature. Following incubation, slides were treated with protease for 15 min followed with rat monoclonal anti-CD31 antibody (1:1000 dilution) for 60 minutes. After 30 min incubation with anti-rat secondary antibody (provided with ABC kit, Vector) CD31 in tissues was detected with DAB by enhancement with avidin-biotin reaction ABC kit. The slides were counterstained with hematoxylin and then mounted with Aqua-mount (Lerner Labs, Pittsburgh, Pa.). The number of vascular areas staining positive for CD31 were analyzed under bright-field microscopy. A total of at least five fields per specimen were analyzed. In all the staining procedures, appropriate negative controls were included. […]

[6] = tested on: A549 metastatic lung colonies; experiment: Lung metastases in vivo after tail vein injection; parameters: species or system female nude mice
Protocol: To establish lung metastases, female nude mice were injected intravenously via tail vein with 10^6 A549 tumor cells suspended in […] of sterile PBS. Six days later, mice were divided into two groups of 5 mice each and treated. Group 1 received no treatment and group 2 received the experimental MZ drug orally at 1 mg of drug (100 μl) twice a week for 3 weeks. After 3 weeks, animals were euthanized by CO2 inhalation. Lungs from each of the mice from the two groups were injected intra-tracheally with India ink and fixed in Feketes solution. The therapeutic effect of MZ treatment was determined by counting the number of metastatic tumors in each lung under a dissecting microscope without knowledge of the treatment groups. The experiments were performed three times and data analyzed and interpreted as statistically significant if the p value was <0.05 by the Mann-Whitney rank-sum test.
Next, the inventors asked whether treatment with MZ would inhibit the growth of human metastatic lung cancer cells in vivo. About 300 metastatic colonies appeared on untreated mice 21 days after A549 cell injection into the tail vein (FIG. 6). This technique was reproducible as the totals blindly counted by two investigators differed by less than 10%. This experiment was performed three times with similar results. The oral administration of […] MZ reduced mean colony count to 80% of the mean value for controls (P<0.0001).

topoisomerase I = topoisomerase I (Homo sapiens, UniProt P11387); experiment: Test for topoisomerase I poison effect; type: biochemical
topoisomerase I, sequence (P11387 whole entry): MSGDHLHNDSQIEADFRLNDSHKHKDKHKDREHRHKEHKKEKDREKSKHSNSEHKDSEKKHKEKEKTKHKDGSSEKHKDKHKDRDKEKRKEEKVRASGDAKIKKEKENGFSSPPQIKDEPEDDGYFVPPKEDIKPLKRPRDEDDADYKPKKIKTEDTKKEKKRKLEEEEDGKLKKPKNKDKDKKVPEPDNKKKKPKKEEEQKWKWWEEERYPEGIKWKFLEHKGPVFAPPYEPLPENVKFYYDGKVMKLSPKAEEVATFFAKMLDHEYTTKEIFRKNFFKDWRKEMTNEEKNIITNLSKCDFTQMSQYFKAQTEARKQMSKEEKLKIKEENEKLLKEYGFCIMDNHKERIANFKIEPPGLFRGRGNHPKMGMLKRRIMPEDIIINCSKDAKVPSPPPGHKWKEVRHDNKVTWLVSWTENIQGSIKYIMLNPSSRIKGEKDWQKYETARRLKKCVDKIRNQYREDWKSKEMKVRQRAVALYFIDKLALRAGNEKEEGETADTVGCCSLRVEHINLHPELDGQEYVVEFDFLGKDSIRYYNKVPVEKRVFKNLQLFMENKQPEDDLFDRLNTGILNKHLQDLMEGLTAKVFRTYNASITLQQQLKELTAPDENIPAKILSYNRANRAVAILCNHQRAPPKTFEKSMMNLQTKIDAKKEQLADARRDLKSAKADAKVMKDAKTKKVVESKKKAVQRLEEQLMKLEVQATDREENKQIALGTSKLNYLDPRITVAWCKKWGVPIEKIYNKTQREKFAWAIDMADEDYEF
From the text: It has been shown recently that BZ are substrates for the P-glycoprotein transporter in multidrug-resistant tumor cells (Nare et al. 1994). It may be speculated that P-glycoprotein, which is overexpressed in several normal tissues and organs, could mediate the transport of BZ. Some terbenzimidazole compounds have been reported to be topoisomerase I poisons (Pilch et al., 1996).

[7] = tested on: adenovirus expressed MDA-7; experiment: Adenovirus expressed MDA-7 levels; type: cell-based
H460 NSCLC cells = experiment: Cell cycle profiles by FACS, MZ and vinorelbine; type: cell-based, human
Protocol: FIG. 10. MZ Enhances activity of anti-mictotic drugs in H460 NSCLC cells. H460 cells were treated with low dose of MZ or Vinorelbine. Cell cycle profiles indicating G1/S G2-Mphases were analyzed by FACS.
The doses of MZ and vinorelbine were chosen to be “sub-therapeutic”. […] Thus, in H460 NSCLC cells mebendazole enhances the activity of anti-mitotic drugs.

A549 lung cancer cells = experiment: Apoptotic cells by TdT-FACS analysis; type: cell-based, human
Protocol: Approximately 10^4 cells were seeded on tissue culture plates 24 h before drug treatment or adenoviral infection. […] FIG. 4C—A549 lung cancer cells were examined for apoptotic cell death 48 h after FZ and Ad5p53 treatment alone or in combination. Percent apoptotic cells were measured by TdT-FACS analysis.
For TdT FACS analysis control and treated cells were collected by trypsinization, washed in PBS, and fixed overnight in 70% ethanol. The next day, cells were rehydrated in PBS for 30 min, centrifuged, and resuspended in PBS. For DNA analysis, propidium iodide (PI) was added at 50 μg/ml, and the cells were incubated in the presence of RNase A (15 mg/ml for 30 min at 37° C.). To detect DNA strand breaks associated with apoptosis, cells were fixed in 1% formaldehyde for 15 min at 4° C., rinsed in PBS, and stored at 4° C. in ice-cold 70% ethanol. Before staining, the cells were washed in PBS, and 10^6 cells were resuspended in 50 ml of cacodylated buffer containing 100 μ/ml TdT enzyme and 0.5 nM biotin-16 dUTP for 30 min at 37° C. Cells were washed in PBS and resuspended in 100 ml of 4×SSC containing 2.5 mg/ml fluoresceinated avidin, 0.1% Triton X-100, and 5% dry fat milk and then incubated at room temperature for 30 min in the dark. […] Flow cytometry was carried out in a fluorescence-activated cell sorter (Epics Elite; Coulter, Inc., Hialeah, Fla.).

Compound | IC50 [1] [nM] | effect on growth of HUVEC [2] | effect on growth of normal fibroblast (normal fibroblast) | IC50 [3] [nM] | tumor growth, dose escalation ([4]; 0.2, 0.4 and 0.8 mg of MZ every other day) | tumor weight versus control animals ([4]; MZ every other day for 4 weeks) | tumor growth ([4]; established tumors (3 mm), 1 mg of MZ orally every other day) | toxicity in treated mice ([4]; mouse, in vivo) | neovascularization (blood vessel density, CD31) [5] | size of tumor colonies (transverse diameter) ([6]; H and E staining of lung tissues) | mean colony count, % of the mean value for controls ([6]; oral administration of 1 mg/ml MZ, 21 days after A549 injection, P<0.0001) [%] | topoisomerase I poison effect (topoisomerase I) | levels of adenovirus expressed MDA-7 [7] | apoptosis (sub-G0 cells) under combination of MZ and vinorelbine (H460 NSCLC cells; 24-48 hr cultures) | interaction of MZ combined with Vinorelbine (H460 NSCLC cells; low doses of both drugs) | apoptosis under monotherapy (H460 NSCLC cells; sub-therapeutic low dose) | apoptotic cells (A549 lung cancer cells; 48 h after combination treatment FZ and Ad5p53) [%] | apoptotic cells (A549 lung cancer cells; FZ treatment alone) [%]
COC(=O)Nc1nc2ccc(C(=O)c3ccccc3)cc2[nH]1 [Mebendazole, Methyl 5-benzoylbenzimidazole-2-carbamate] | ~120 | no effect | no effect | 100 to 800 | suppressed the growth of the tumors in a dose-dependent manner | marked difference | profoundly inhibit tumor growth | no signs of toxicity | profoundly reduced | significantly reduced | 80 | could not detect any | increased levels | pronounced apoptosis | synergistic interaction | No apoptosis |  | 
COC(=O)Nc1nc2ccc(Sc3ccccc3)cc2[nH]1 [Fenbendazole, methy 5-(phenylthio)-2-benzimidazole-2-carbamate] |  |  |  |  |  |  |  |  |  |  |  |  |  |  |  |  | 30 | 11
